These results are taken from US8748417B2, “Amino-pyrrolidine-azetidine diamides as monoacylglycerol lipase inhibitors” (Janssen Pharmaceutica, NV, priority 2010, dated 2014).

Each structure is given as a SMILES string. Residue numbers refer to the chain shown, from its start.

For orientation: IC50 means the concentration that inhibits the measured activity by half.

Common to all, as to format: biochemical
Experiment [1] deals with MGL (rat brain homogenate). Put plainly: 2-AG accumulation assay in rat brain homogenate. The conditions noted are these: percent of vehicle 2-AG accumulation; for Rat Brain 2AG % VehCntrl (%) @1 μM: compound 1 μM; for Rat Brain 2AG % VehCntrl (%) @10 μM: compound 10 μM. The procedure, abridged:
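Rat brain homogenate was incubated with compound for 15 min at 37° C., after which CaCl2 was added to a final concentration of 10 mM and incubation continued for 15 min at 37° C. in 5 mL total. Reactions were stopped with 6 mL of 2:1 chloroform/methanol, and 2-AG accumulated in the organic phase was quantified by HPLC/MS.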

Experiment [2] has as its target T1, purified mutant MGL (mut-MGLL 11-313 L179S L186S) (Homo sapiens, UniProt Q99685, L169S/L176S).
T1 construct: purified mutant MGL (mut-MGLL 11-313 L179S L186S)
T1 sequence (Q99685 1-303 L169S/L176S): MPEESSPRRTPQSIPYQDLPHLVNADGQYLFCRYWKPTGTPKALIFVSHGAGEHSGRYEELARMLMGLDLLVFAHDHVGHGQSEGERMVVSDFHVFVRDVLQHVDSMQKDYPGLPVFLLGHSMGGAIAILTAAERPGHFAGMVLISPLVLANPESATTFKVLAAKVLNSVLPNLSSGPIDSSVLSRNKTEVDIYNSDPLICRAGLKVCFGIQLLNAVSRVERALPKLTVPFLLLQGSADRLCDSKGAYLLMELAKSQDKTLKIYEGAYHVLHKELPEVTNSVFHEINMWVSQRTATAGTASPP
As to the kind of experiment: MGL enzyme activity assay (4MU-B cleavage), mutant MGL. The conditions noted are these: mutant MGL 5 nM, 4MU-B 10 μM, 37° C.; read-out: MGL mutant inh IC50. Here is the method: All rate-based assays were performed in black 384-well polypropylene PCR microplates (Abgene) in a total volume of 30 μL. Substrate 4-methylumbelliferyl butyrate (4MU-B; Sigma) and either purified mutant MGL (mut-MGLL 11-313 L179S L186S) or purified wild type MGL (wt-MGLL 6H-11-313) were diluted separately into 20 mM PIPES buffer (pH=7.0), containing 150 mM NaCl and 0.001% Tween 20. Compounds of Formula (I) were pre-dispensed (50 nL) into the assay plate using a Cartesian Hummingbird prior to adding 4MU-B (25 μL of 1.2× solution to a final concentration of 10 μM) followed by enzyme (5 μL of a 6× solution to a final concentration of 5 nM) to initiate the reaction. Final compound concentrations ranged from 17 to 0.0003 μM. The fluorescence change due to 4MU-B cleavage was monitored with excitation and emission wavelengths of 335 and 440 nm, respectively, and a bandwidth of 10 nm (Safire^2, Tecan) at 37° C. for 5 min.
The IC50 values for the following compounds were determined using Microsoft Office Excel from a fit of the equation to the concentration-response plot of the fractional activity as a function of inhibitor concentration.

Experiment [3] has as its target T2, purified wild type MGL (wt-MGLL 6H-11-313) (Homo sapiens, UniProt Q99685).
T2 construct: purified wild type MGL (wt-MGLL 6H-11-313)
T2 sequence (Q99685 1-303): T1 sequence (Q99685 1-303 L169S/L176S) with S169L, S176L
Put plainly: MGL enzyme activity assay (4MU-B cleavage), wild type MGL. The conditions noted are these: wild type MGL 5 nM, 4MU-B 10 μM, 37° C.; read-out: MGL wild type inh IC50. The method in brief: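 Enzyme in 20 mM PIPES pH 7.0, 150 mM NaCl, 0.001% Tween 20 with 4MU-B at 10 μM final and MGL at 5 nM final; compounds 17 to 0.0003 μM final, enzyme added last. Fluorescence (ex 335/em 440 nm) followed at 37° C for 5 min; IC50 from fit of fractional activity versus inhibitor concentration.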

Regarding `O=C(c1ccc2c(Br)cccc2c1)N1CC(N[C@H]2CCN(C(=O)c3ccccc3)C2)C1` [Cpd 22, (3S)-N-{1-[(5-Bromonaphthalen-2-yl)carbonyl]azetidin-3-yl}-1-(phenylcarbonyl)pyrrolidin-3-amine], the “Rat Brain 2AG % VehCntrl (%) @1 μM” value in experiment [1] turned out to be 223%. The IC50 in experiment [2] turned out to be 33.5 nM.

With `O=C(c1ccc2c(Br)cccc2c1)N1CC(N(O)[C@H]2CCN(C(=O)c3ccccc3)C2)C1` [Cpd 34, (3S)-N-{1-[(5-Bromonaphthalen-2-yl)carbonyl]azetidin-3-yl}-N-hydroxy-1-(phenylcarbonyl)pyrrolidin-3-amine], the “Rat Brain 2AG % VehCntrl (%) @1 μM” value in experiment [1] came out at 645%. Moreover, in experiment [2], the IC50 came out at 13.2 nM.

As to `O=C(c1ccccc1)N1CC[C@H](NC2CN(C(=O)c3sc4cc(Br)ccc4c3Cl)C2)C1` [Cpd 21, (3S)-N-{1-[(6-Bromo-3-chloro-1-benzothiophen-2-yl)carbonyl]azetidin-3-yl}-1-(phenylcarbonyl)pyrrolidin-3-amine], in experiment [1], the “Rat Brain 2AG % VehCntrl (%) @1 μM” value worked out at 596%. Also, the IC50 in experiment [2] came out at 5 nM.

`O=C(c1ccccc1)N1CC[C@H](NC2CN(C(=O)c3sc4cc(C(F)(F)F)ccc4c3Cl)C2)C1` [Cpd 28, (3S)-N-(1-{[3-Chloro-6-(trifluoromethyl)-1-benzothiophen-2-yl]carbonyl}azetidin-3-yl)-1-(phenylcarbonyl)pyrrolidin-3-amine]: the “Rat Brain 2AG % VehCntrl (%) @1 μM” value in experiment [1] is on record as 511%. Besides, in experiment [2], the IC50 was less than 5 nM.

On to `O=C(c1ccc2c(c1)Cc1ccccc1-2)N1CC(N[C@H]2CCN(C(=O)c3ccccc3)C2)C1` [Cpd 27, (3S)-N-[1-(9H-Fluoren-2-ylcarbonyl)azetidin-3-yl]-1-(phenylcarbonyl)pyrrolidin-3-amine], for which, in experiment [1], the “Rat Brain 2AG % VehCntrl (%) @1 μM” value is recorded as 125%. Further, the IC50 in experiment [2] turned out to be 96.7 nM.

Take `O=C(c1ccc(Cc2ccccc2)cc1)N1CC(N[C@H]2CCN(C(=O)c3ccccc3)C2)C1` [Cpd 4, (3S)-N-{1-[(4-Benzylphenyl)carbonyl]azetidin-3-yl}-1-(phenylcarbonyl)pyrrolidin-3-amine]: the “Rat Brain 2AG % VehCntrl (%) @10 μM” value in experiment [1] came out at 1033%. Besides, the half-maximal inhibitory concentration (IC50) in experiment [2] was 12 nM.

Regarding `O=C(c1ccc(-c2cc(Cl)cc(Cl)c2)cc1)N1CC(N[C@H]2CCN(C(=O)c3ccccc3)C2)C1` [Cpd 17, (3S)-N-{1-[(3′,5′-Dichlorobiphenyl-4-yl)carbonyl]azetidin-3-yl}-1-(phenylcarbonyl)pyrrolidin-3-amine], in experiment [1], the “Rat Brain 2AG % VehCntrl (%) @1 μM” value is reported as 441%. Further, in experiment [2], the IC50 stood at 41 nM.

`O=C(c1ccccc1)N1CC[C@H](NC2CN(C(=O)c3sc4cc(F)ccc4c3C3CC3)C2)C1` [Cpd 70, (3S)-N-{1-[(3-Cyclopropyl-6-fluoro-1-benzothiophen-2-yl)carbonyl]azetidin-3-yl}-1-(phenylcarbonyl)pyrrolidin-3-amine]: the “Rat Brain 2AG % VehCntrl (%) @1 μM” value in experiment [1] is reported as 217%. Moreover, the IC50 in experiment [2] turned out to be 25.5 nM.

On to `CN(C1CN(C(=O)c2ccc(Cc3ccccc3)cc2)C1)[C@H]1CCN(C(=O)c2ccccc2)C1` [Cpd 14, (3S)-N-{1-[(4-Benzylphenyl)carbonyl]azetidin-3-yl}-N-methyl-1-(phenylcarbonyl) pyrrolidin-3-amine], for which the “Rat Brain 2AG % VehCntrl (%) @1 μM” value in experiment [1] is listed as 484%. Also, in experiment [2], the IC50 stood at 5 nM.

With `O=C(c1ccccc1)N1CC[C@H](NC2CN(C(=O)c3cc4cc(Br)ccc4s3)C2)C1` [Cpd 49, (3S)-N-{1-[(5-Bromo-1-benzothiophen-2-yl)carbonyl]azetidin-3-yl}-1-(phenylcarbonyl)pyrrolidin-3-amine], the figures for the IC50 in experiment [2] and in experiment [3] were 357 nM and 480 nM, respectively.

Turning to `O=C(c1ccccc1)N1CC[C@H](NC2CN(C(=O)c3cc4cc(-c5cccc(C(F)(F)F)c5)ccc4s3)C2)C1` [Cpd 51, (3S)-1-(Phenylcarbonyl)-N-[1-({5-[3-(trifluoromethyl)phenyl]-1-benzothiophen-2-yl}carbonyl)azetidin-3-yl]pyrrolidin-3-amine], the IC50 in experiment [2] is 229 nM; in experiment [3], less than 5 nM.

In the case of `Cc1c(C(=O)N2CC(N[C@H]3CCN(C(=O)c4ccccc4)C3)C2)sc2ccccc12` [Cpd 68, (3S)-N-{1-[(3-Methyl-1-benzothiophen-2-yl)carbonyl]azetidin-3-yl}-1-(phenylcarbonyl)pyrrolidin-3-amine], the “Rat Brain 2AG % VehCntrl (%) @1 μM” value in experiment [1] is recorded as 161%. In experiment [2], the IC50 was found to be 84.5 nM.

On to `O=C(c1ccc(Cc2ccccc2)cc1)N1CC(N[C@H]2CCN(C(=O)c3nccs3)C2)C1` [Cpd 3, (3S)-N-{1-[(4-Benzylphenyl)carbonyl]azetidin-3-yl}-1-(1,3-thiazol-2-ylcarbonyl)pyrrolidin-3-amine], for which the “Rat Brain 2AG % VehCntrl (%) @10 μM” value in experiment [1] turned out to be 844%. Besides, the IC50 in experiment [2] stood at 21.8 nM.

In the case of `Cc1c(C(=O)N2CC(N[C@H]3CCN(C(=O)c4ccccc4)C3)C2)sc2ccc(Cl)cc12` [Cpd 37, (3S)-N-{1-[(5-Chloro-3-methyl-1-benzothiophen-2-yl)carbonyl]azetidin-3-yl}-1-(phenylcarbonyl)pyrrolidin-3-amine], in experiment [1], the “Rat Brain 2AG % VehCntrl (%) @1 μM” value came to 381%. In addition, in experiment [2], the IC50 amounted to 47.7 nM.

For `O=C(c1ccccc1)N1CC[C@H](NC2CN(C(=O)c3cc4ccc(C(F)(F)F)cc4s3)C2)C1` [Cpd 20, (3S)-1-(Phenylcarbonyl)-N-(1-{[6-(trifluoromethyl)-1-benzothiophen-2-yl]carbonyl}azetidin-3-yl)pyrrolidin-3-amine], the “Rat Brain 2AG % VehCntrl (%) @1 μM” value in experiment [1] came to 304%. Moreover, in experiment [2], the IC50 was determined as 80.4 nM.

Consider `O=C(c1ccc2c(-c3ccccc3)cccc2c1)N1CC(N[C@H]2CCN(C(=O)c3ccccc3)C2)C1` [Cpd 23, (3S)-1-(Phenylcarbonyl)-N-{1-[(5-phenylnaphthalen-2-yl)carbonyl]azetidin-3-yl}pyrrolidin-3-amine], for which the “Rat Brain 2AG % VehCntrl (%) @1 μM” value in experiment [1] was 293%. For the same compound, in experiment [2], the IC50 amounted to 14.9 nM.

Take `O=C(c1ccc(-c2ccccc2)cc1)N1CC(NC2CN(C(=O)c3ccccc3)CC2F)C1` (stereo not drawn) [Cpd 58, N-[1-(Biphenyl-4-ylcarbonyl)azetidin-3-yl]-4-fluoro-1-(phenylcarbonyl)pyrrolidin-3-amine]: the IC50 in experiment [2] was 33 nM; in experiment [3] it was 464 nM.

With `O=C(c1ccc2c(-c3ccc(OC(F)(F)F)cc3)cccc2c1)N1CC(N[C@H]2CCN(C(=O)c3ccccc3)C2)C1` [Cpd 26, (3S)-1-(Phenylcarbonyl)-N-[1-({5-[4-(trifluoromethoxy)phenyl]naphthalen-2-yl}carbonyl)azetidin-3-yl]pyrrolidin-3-amine], the IC50 in experiment [2] amounted to 125 nM.

As to `O=C(c1ccccc1)N1CC[C@H](NC2CN(C(=O)c3sc4ccccc4c3-c3ccccc3)C2)C1` [Cpd 65, (3S)-N-{1-[(3-Phenyl-1-benzothiophen-2-yl)carbonyl]azetidin-3-yl}-1-(phenylcarbonyl)pyrrolidin-3-amine], the IC50 in experiment [2] was 103 nM.

For `O=C(c1ccccc1)N1CC[C@H](NC2CN(C(=O)c3cc4ccc(-c5ccc(C(F)(F)F)cc5)cc4s3)C2)C1` [Cpd 43, (3S)-1-(Phenylcarbonyl)-N-[1-({6-[4-(trifluoromethyl)phenyl]-1-benzothiophen-2-yl}carbonyl)azetidin-3-yl]pyrrolidin-3-amine], the IC50 in experiment [2] came out at 267 nM.

Consider `O=C(c1ccccc1)N1CC[C@H](NC2CN(C(=O)c3cc4cc(-c5ccc(C(F)(F)F)cc5)ccc4s3)C2)C1` [Cpd 52, (3S)-1-(Phenylcarbonyl)-N-[1-({5-[4-(trifluoromethyl)phenyl]-1-benzothiophen-2-yl}carbonyl)azetidin-3-yl]pyrrolidin-3-amine], for which the values for the IC50 in experiment [2] and in experiment [3] were 226 nM and 6.6 nM, respectively.
